Data taken from patent US11066413B2, “Aminopyrimidine five-membered heterocyclic compound, and intermediate, preparation method, pharmaceutical composition and application thereof” (GUANGZHOU MAXINOVEL PHARMACEUTICALS CO., LTD., priority 2017, dated 2021).

Molecular target: T1, hA2A receptor (Homo sapiens (Human), UniProt P29274)
Assay: binding affinity IC50 to hA2A receptor (SPA beads, Effect Embodiment 1)
Details: A2A receptor membrane, 1 hour at room temperature, read-out: IC50 values of compound 1 binding affinity to hA2A receptor
Description: evaluation experiment of the binding affinity IC50 of the compound 1 to hA2A receptor.
Experimental procedure • 1. Preparation of the test compound. • 1) The compound mother plate (1500 rpm, 1 minute) was centrifuged; • 2) 50 Nanoliters was transferred from the compound mother plate to the reaction plate by a nano-sound sonic pipetting system; • 2. Preparation of buffer medium membrane, preparation of beads suspension; • 1) DMSO was added to the assay buffer, final concentration of DMSO was 1%; • 2) homogenized A2A receptor membrane was connected to a 1 mL syringe five times by a No. 26 needle (to avoid air bubbles); • 3) the buffer, A2A receptor membrane and ADA were mixed, and was let stand for 15 minutes at room temperature; • 4) SPA beads were added and mixed well with A2A receptor membrane; • 3. Preparation of radioisotope buffer • 4. Mix reaction reagents • 1) 20 μL of radioactive buffer solution was added into the reaction plate; • 2) 30 μL of membrane and […] suspension was added into the reaction plate; • 3) the plate was sealed and incubated for 1 hour at room temperature with vigorous mixing and shaking; • 4) the beads were precipitated for 4-5 minutes before reading. • 5) Reading with Microbeta; • 5. Data processing

T1 sequence (P29274 whole entry): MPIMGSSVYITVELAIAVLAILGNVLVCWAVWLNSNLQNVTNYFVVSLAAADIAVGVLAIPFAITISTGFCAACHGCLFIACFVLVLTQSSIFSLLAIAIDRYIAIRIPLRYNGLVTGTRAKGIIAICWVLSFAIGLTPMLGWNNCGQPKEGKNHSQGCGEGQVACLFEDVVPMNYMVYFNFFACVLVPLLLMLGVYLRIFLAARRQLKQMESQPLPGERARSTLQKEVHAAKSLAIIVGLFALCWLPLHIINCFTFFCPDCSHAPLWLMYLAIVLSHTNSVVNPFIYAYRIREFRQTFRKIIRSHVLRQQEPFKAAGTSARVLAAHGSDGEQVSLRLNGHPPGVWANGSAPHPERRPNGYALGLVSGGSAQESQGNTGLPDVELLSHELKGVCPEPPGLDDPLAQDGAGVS

IC50 [nM] | SMILES
79 | Nc1nc(-c2ccco2)c2c(n1)C(Cc1ccccc1F)OC2=O (centres unmarked) [Compound 1, 2-amino-7-(2-fluorobenzyl)-4-(furan-2-yl)-5H,7H-furo[3,4-d]pyrimidin-5-one]

Molecular target: T1, hA2A receptor
Assay: binding affinity IC50 to hA2A receptor ([3H]-CGS 21680 filter binding, Effect Embodiment 2)
Details: A2A membrane, [3H]-CGS 21680 (final 25 nM), 90 minutes at 25° C.
Description: Evaluation experiment of the binding affinity IC50 of the compounds 1-61 to hA2A receptor
40 uL of ULTIMA GOLD scintillation fluid was added to each well and the CPM (count per minute) value was read by TopCount.

SMILES | IC50 [nM]
Nc1nc(-c2ccco2)c2c(n1)C(Cc1ccccc1F)OC2=O (centres unmarked) [Compound 1, 2-amino-7-(2-fluorobenzyl)-4-(furan-2-yl)-5H,7H-furo[3,4-d]pyrimidin-5-one] | 14.7
Cc1ccc(-c2nc(N)nc3c2C(=O)OC3Cc2ccccc2OC(F)(F)F)o1 (centres unmarked) [Compound 36, 2-amino-7-((2-(trifluoromethoxyl)phenyl)methyl)-4-(5-methylfuran-2-yl)-5H,7H-furo[3,4-d]pyrimidin-5-one] | 28.1
Nc1nc(-c2ccc(Br)o2)c2c(n1)C(Cc1ccccc1OC(F)(F)F)OC2=O (centres unmarked) [Compound 37, 2-amino-7-((2-(trifluoromethoxyl)phenyl)methyl)-4-(5-bromofuran-2-yl)-5H,7H-furo[3,4-d]pyrimidin-5-one] | 67.4
CN1C(=O)c2c(nc(N)nc2-c2ccco2)C1=Cc1ccccc1F [Compound 38, 2-amino-7-((2-fluorophenyl)methylene)-4-(furan-2-yl)-6-methyl-5H,6H,7H-pyrrolo[3,4-d]pyrimidin-5-one] | 6.1
Cc1ccc(-c2nc(N)nc3c2C(=O)OC3Cc2ccccc2OC(F)F)o1 (centres unmarked) [Compound 39, 2-amino-7-((2-(difluoromethoxyl)phenyl)methyl)-4-(5-methylfuran-2-yl)-5H,7H-furo[3,4-d]pyrimidin-5-one] | 128
Cn1c(=O)n(Cc2ccccc2F)c2nc(N)nc(-c3ccco3)c21 [Compound 41, 2-amino-9-((2-fluorophenyl)methyl)-6-(furan-2-yl)-7-methyl-8,9-dihydro-7H-purinyl-8-one] | 43.5
Cc1ccc(-c2nc(N)nc3c2C(=O)OC3Cc2ccc(F)cc2F)o1 (centres unmarked) [Compound 42, 2-amino-7-((2,4-difluorophenyl)methyl)-7-deuterium-4-(5-methylfuran-2-yl)-5H,7H-furo[3,4-d]pyrimidin-5-one] | 87.4
Cc1ccc(-c2nc(N)nc3c2C(=O)OC3(C)Cc2ccccc2F)o1 (centres unmarked) [Compound 43, 2-amino-7-((2-fluorophenyl)methyl)-7-methyl-4-(5-methylfuran-2-yl)-5H,7H-furo[3,4-d]pyrimidin-5-one] | 992
CN1C(=O)c2c(-c3ccco3)nc(N)nc2C1Cc1ccccc1F (centres unmarked) [Compound 44, 2-amino-7-((2-fluorophenyl)methyl)-4-(furan-2-yl)-6-methyl-5H,6H,7H-pyrrolo[3,4-d]pyrimidin-5-one] | 64.6
CN1C(=O)c2c(-c3ccco3)nc(N)nc2C1Cc1ccccc1OC(F)(F)F (centres unmarked) [Compound 45, 2-amino-7-((2-trifluoromethoxylphenyl)methyl)-4-(furan-2-yl)-6-methyl-5H,6H,7H-pyrrolo[3,4-d]pyrimidin-5-one] | 11.6
CN1C(=O)c2c(nc(N)nc2-c2ccco2)C1=Cc1ccc(F)cc1F [Compound 46, 2-amino-7-((2,4-difluorophenyl)methylene)-4-(furan-2-yl)-6-methyl-5H,6H,7H-pyrrolo[3,4-d]pyrimidin-5-one] | 8.7
Cc1ccc(-c2nc(N)nc3c2C(=O)N(C)C3Cc2cc[n+]([O-])cc2)o1 (centres unmarked) [Compound 58, 4-((2-amino-6-methyl-4-(5-methylfuran-2-yl)-5-carbonyl-5H-pyrrolo[3,4-d]pyrimidin-7(6H)-ene)methyl)-N-oxide pyridine] | 21

Next, values leading:

IC50 [nM] | SMILES
16.4 | CN1C(=O)c2c(-c3ccco3)nc(N)nc2C1Cc1ccc(F)cc1F (centres unmarked) [Compound 47, 2-amino-7-((2,4-difluorophenyl)methyl)-4-(furan-2-yl)-6-methyl-5H,6H,7H-pyrrolo[3,4-d]pyrimidin-5-one]
13.2 | Cc1ccc(-c2nc(N)nc3c2C(=O)N(C)C3=Cc2ccc(F)cc2F)o1 [Compound 48, 2-amino-7-((2,4-difluorophenyl)methylene)-4-(5-methylfuran-2-yl)-6-methyl-5H,6H,7H-pyrrolo[3,4-d]pyrimidin-5-one]
32.1 | Cc1ccc(-c2nc(N)nc3c2C(=O)N(C)C3Cc2ccc(F)cc2F)o1 (centres unmarked) [Compound 49, 2-amino-7-((2,4-difluorophenyl)methyl)-4-(5-methylfuran-2-yl)-6-methyl-5H,6H,7H-pyrrolo[3,4-d]pyrimidin-5-one]
7.3 | Cc1ccc(-c2nc(N)nc3c2C(=O)N(C)C3=Cc2ccccc2F)o1 [Compound 50, 2-amino-7-((2-fluorophenyl)methylene)-4-(5-methylfuran-2-yl)-6-methyl-5H,6H,7H-pyrrolo[3,4-d]pyrimidin-5-one]
4.7 | Cc1ccc(-c2nc(N)nc3c2C(=O)N(C)/C3=C\c2ccccc2C(F)(F)F)o1 [Compound 51, 2-amino-7-((2-(trifluoromethyl)phenyl)methylene)-4-(5-methylfuran-2-yl)-6-methyl-5H,6H,7H-pyrrolo[3,4-d]pyrimidin-5-one]
3.6 | Cc1ccc(-c2nc(N)nc3c2C(=O)N(C)C3=Cc2ccccc2OC(F)(F)F)o1 [Compound 52, 2-amino-7-((2-(trifluoromethoxyl)phenyl)methylene)-4-(5-methylfuran-2-yl)-6-methyl-5H,6H,7H-pyrrolo[3,4-d]pyrimidin-5-one]
56.2 | Cc1ccc(-c2nc(N)nc3c2C(=O)N(C)C3Cc2ccccc2OC(F)(F)F)o1 (centres unmarked) [Compound 53, 2-amino-7-((2-(trifluoromethoxyl)phenyl)methyl)-4-(5-methylfuran-2-yl)-6-methyl-5H,6H,7H-pyrrolo[3,4-d]pyrimidin-5-one]
34.7 | Cc1ccc(-c2nc(N)nc3c2C(=O)N(C)C3Cc2ccccc2C(F)(F)F)o1 (centres unmarked) [Compound 54, 2-amino-7-((2-(trifluoromethyl)phenyl)methyl)-4-(5-methylfuran-2-yl)-6-methyl-5H,6H,7H-pyrrolo[3,4-d]pyrimidin-5-one]
29.3 | Cc1ccc(-c2nc(N)nc3c2C(=O)N(C)C3Cc2ccccc2F)o1 (centres unmarked) [Compound 55, 2-amino-7-((2-fluorophenyl)methyl)-4-(5-methylfuran-2-yl)-6-methyl-5H,6H,7H-pyrrolo[3,4-d]pyrimidin-5-one]
3.4 | Cc1ccc(-c2nc(N)nc3c2C(=O)N(C)C3=Cc2ccc(F)cc2C(F)(F)F)o1 [Compound 56, 2-amino-7-((2-(trifluoromethyl)-4-fluorophenyl)methylene)-4-(5-methylfuran-2-yl)-6-methyl-5H,6H,7H-pyrrolo[3,4-d]pyrimidin-5-one]
152 | Cc1ccc(-c2nc(N)nc3c2C(=O)N(C)C3Cc2ccc(F)cc2C(F)(F)F)o1 (centres unmarked) [Compound 57, 2-amino-7-((2-(trifluoromethyl)-4-fluorophenyl)methyl)-4-(5-methylfuran-2-yl)-6-methyl-5H,6H,7H-pyrrolo[3,4-d]pyrimidin-5-one]
179 | Cc1ccc(-c2nc(N)nc3c2C(=O)N(C)C3Cc2ccncc2)o1 (centres unmarked) [Compound 59, 2-amino-6-methyl-4-(5-methylfuran-2-yl)-7-(pyridin-4-ylmethyl)-6,7-dihydro-5-carbonyl-5H-pyrrolo[3,4-d]pyrimidine]
213 | Cc1ccc(-c2nc(N)nc3c2n(C)c(=O)n3-c2ccccc2C(F)(F)F)o1 [Compound 61, 2-amino-7-methyl-6-(5-methylfuran-2-yl)-9-(2-(trifluoromethyl)phenyl)-8(9H)-carbonyl-7H-purine]
